{"source": "paper PMC8861638", "about": "“Human iPSC-derived renal organoids engineered to report oxidative stress can predict drug-induced toxicity” (iScience, 2022)", "key": {"[1]": {"system": "HO1-mCherry-hiPSC-derived flat renal organoids", "experiment": "Blind-coded screen, mCherry fluorescence of HMOX1 reporter in flat organoids", "method": "(§1) H O 1-mCherry-hiPSC renal organoids (both flat and 3D) were incubated in a 4-fold dilution series of each compound for either 24 h or 72 h. Data on reporter expression are shown graphically in Figure 5.\n(§2) A four-fold dilution series of each blinded compound (lyophilized, obtained from the Gothenburg authors) was prepared and HO1-mCherry-hiPSC-derived renal organoids (flat and 3D) were incubated in these dilutions for either 24h or 72h (Figure 5). A no-treatment control was included for each compound, time-point and organoid type (flat or 3D). 24h flat organoids were cultured in 4 x wells of a 24-well plate; 72h flat organoids in wells of a 96-well plate and 3D organoids on transwell inserts.\n(§3) Fluorescence measurements were taken after 24h or 72h. Each live organoid was imaged either 5 times with 4 replicates (flat organoids, 24h), once with 10 replicates (flat organoids, 72h), once with 3 replicates (3D organoids, 24h) or 3 times with 3 replicates (3D organoids, 72h). Organoids were imaged using a Zeiss Axiovert microscope with Axiovision software. All images used for fluorescence intensity analysis were taken with identical exposures and settings. All images were analysed using ImageJ. The total fluorescence intensity of the image was multiplied by the total area with a signal between 600 (lower threshold) and 4096 (higher threshold), where 0 is completely black and 4096 is completely white. Thus, only signal above a certain threshold is measured in order to discount very dark areas with no cells.\n(§4) In graphs, a single star indicates a p value of the null hypothesis being true of less than 0.05, two stars a p value of less than 0.01 and 3 stars a p value of less than 0.001. Calculation of the overall performance of the assay (in the Discussion section) was performed by calculating the Wilson Score Interval method ([Newcombe, 1998])."}, "[2]": {"system": "HO1-mCherry-hiPSC-derived 3D renal organoids", "experiment": "Blind-coded screen, mCherry fluorescence of HMOX1 reporter in 3D organoids", "method": "as §1, §2, §3, §4"}, "[3]": {"system": "hiPSC-derived renal organoids", "format": "cell-based, human", "from_the_text": "We also stained drug-treated organoids for HMOX1 together with LTL and COL IV (Figure S3A), or JAG1 (Figure S3B), to test whether the response is localized to a specific cell type in the organoid. […] The general increase in HMOX1 expression in response to the toxic drugs, rather than specific response in proximal tubular cells, the primary site of toxicity of both drugs, could be due to the availability of the drug to all cell types of the organoid through the media in contrast to what happens in vivo where these drugs filter through the glomeruli then specifically accumulate inside the proximal tubular cells, through apical uptake pathways, where most of their toxic effect is seen.\nThe culture medium was aspirated, cells washed once in PBS, then fixed in 4% PFA in PBS for 15 minutes at room temperature, followed by three PBS washes of 3 min each. Cells were permeabilised and blocked for 1 hour (2% BSA, 0.3% Triton x100 in PBS). Cells were washed in PBS and incubated with primary antibodies overnight at 4 °C. Cells were washed in PBS (3x, 15 min) and incubated with secondary antibodies for 2 hrs at room temperature. Cells were washed in PBS (3x, 15 minutes) before imaging in PBS in the wells. Images were taken using a Zeiss Axiovert fluorescence microscope. […]"}, "[4]": {"system": "hiPSC-derived flat renal organoids", "experiment": "RNA-seq of wild-type hiPSC-derived flat renal organoids treated with gentamicin for 24 h", "format": "cell-based, human", "from_the_text": "Although some transporters were more strongly expressed in the 3D organoids, the presence of Megalin and Cubulin in the flat organoids, combined with their increased suitability for high-throughput analyses, led us to adopt this form of organoid to identify a potential reporter for toxic insults in renal organoids. hiPSCs were differentiated into flat renal organoids, and their renal identity was verified by confirming expression of common renal markers (as described above and in the Methods section). We treated these flat renal organoids for 24 h with the known nephrotoxicant, gentamicin ([Regec et al., 1986], [1989]; [El Mouedden et al., 2000]), at 1 or 4 mg/mL, leaving some as vehicle-only controls (3 separate organoids per condition). Gentamicin was chosen based on the presence of Megalin and Cubulin in these organoids because they are the main endocytic receptors involved in gentamicin uptake into proximal tubule cells ([Schmitz et al., 2002]) and would be expected to be necessary for a realistic toxic response. The transcriptomes of renal organoids in these three conditions were compared using RNA-seq analyses.\nIn contrast, treatment with 4 mg/mL gentamicin caused the expression of 2,221 genes to increase and that of 1770 to decrease. Among the transcripts showing increased expression was KIM-1 (log fold-change: 1.67; FDR-corrected p = 0.03), a biomarker commonly associated with renal tubular necrosis (Table S1).\nRNA-seq, and trimming, filtering and normalization of raw data, was performed by Edinburgh Genomics. 1 μg of total RNA/sample was used for sequencing library preparation using an Illumina TruSeq stranded mRNA kit. Sequencing was performed using a Novaseq S1 50 Paired-end run to produce 50–64 million read-pairs per sample. Reads were trimmed using Cutadapt and were aligned to the Homo sapiens reference genome (GRCh38; from Ensembl) using STAR. […] Reads were assigned to features of type ‘exon’ in the input annotation grouped by gene_id in the reference genome using Feature Counts. […] Reads were normalised using the weighted trimmed mean of M-values method. […]"}, "[5]": {"system": "HO1-mCherry-hiPSC-derived flat renal organoids", "experiment": "Verification of reporter response in flat organoids to known nephrotoxicants (fluorescence, qPCR)", "format": "cell-based, human", "details": "increasing amounts of compound", "quoted_text": "Total RNA was isolated from organoids using the Qiagen RNeasy mini kit. Flat organoids were dissociated and processed as per the kit protocol. 3D organoids were lysed using the lysis buffer provided in the kit and then passed through a needle to fully dissociate before continuing with the kit protocol. RNA was stored at −80 °C until use. cDNA for qPCR was prepared using 2μg RNA and cDNA for RT-PCR was prepared using 1μg of RNA. All cDNA was quality-controlled by PCR using intron-spanning primers for β-actin on cDNA, prepared with or without reverse transcriptase (primers in Table S4). RT-PCRs for OAT1 (SLC22A6) and OCT2 (SLC22A2) were carried out in multiplex reactions with primers for β-actin as loading controls (primers in Table S4). qPCRs on undifferentiated and flat organoids for HMOX1 with HPRT1 as internal control were performed using TaqMan reagents as per published protocols (Applied Biosystems, assay nos. in Table S4). For qPCRs in the blind-coded screen, quality-controlled cDNA was provided by the Edinburgh authors to the Gothenburg authors. […] The reaction was prepared via Beckman NX and measured on Applied Biosystems QuantStudio 7 Real-Time PCR System.Technical triplicates served to calculate CT mean for each gene. The ΔCT between the target gene and the mean CT of the two reference genes was calculated for each biological replicate. […]"}, "[6]": {"system": "undifferentiated HO1-mCherry-hiPSCs", "details": "0, 125, or 250 μM for 24 h", "quoted_text": "RNA was stored at −80 °C until use. cDNA for qPCR was prepared using 2μg RNA and cDNA for RT-PCR was prepared using 1μg of RNA. […] 12 ng of cDNA was utilized for each qPCR reaction. TaqMan gene expression assays (Applied Biosystems, TaqMan Gene Expression FAST Master Mix) were performed on HMOX1 and house-keeping genes HPRT and RPLP0. The reaction was prepared via Beckman NX and measured on Applied Biosystems QuantStudio 7 Real-Time PCR System.Technical triplicates served to calculate CT mean for each gene. The ΔCT between the target gene and the mean CT of the two reference genes was calculated for each biological replicate. The mean ΔCT of biological triplicates was normalized to untreated sample resulting in 2^ΔΔCT. […] A one-way ANOVA on repeated measures was performed. Significant fold-change was established by Dunnett's multiple comparisons test."}, "[7]": {"system": "flat and 3D HO1-mCherry-hiPSC-derived organoids", "experiment": "HMOX1 qPCR in the blind-coded screen, flat and 3D organoids, 24h", "format": "cell-based, human", "details": "highest concentration 384µM", "method": "A one-way ANOVA on repeated measures was performed. […]\nmCherry insertion without hydrogen peroxide treatment. B) Single mCherry-positive cells were sorted into each well of 96-well plates as shown in the right panel to isolate clonal populations. Negative (wild type) cells are shown in the left panel. C) Diagram of the primers designed for verifying cassette insertion into the hiPSC genome. D) PCR products using primer pair 1 and 4 shown in C) - endogenous […]\nFigure S5. HMOX1 expression in flat and 3D HO1-mCherry-hiPSC-derived flat and 3D organoids by qPCR fold-change analysis, Related to Figure 6.\nHMOX1 expression fold-change compared to vehicle control in flat (white) and 3D […]"}, "[8]": {"details": "flat organoids, 24 h and 72 h, 4-fold dilution series"}, "[9]": {"details": "3D organoids, 24 h and 72 h, 4-fold dilution series"}}, "note": "Several values for one entry are separate records, joined by “and”; a condition that tells them apart may be missing. Equal values may be shown once. Read-outs that look alike come from different tables or passages of the source."}
{"molecule": "Nc1ccn(C[C@@H](CO)OCP(=O)(O)O)c(=O)n1", "note": "[Cidofovir]", "values": [{"measurement": "Prediction of toxicity by increase in fluorescence intensity", "setting": "[1]; Flat 24h", "result": "N"}, {"measurement": "Prediction of toxicity by increase in fluorescence intensity", "setting": "[1]; Flat 72h", "result": "Y"}, {"measurement": "Reporter fluorescence response compared to vehicle control", "setting": "[1]; flat organoids, 24 h", "result": "no significant response"}, {"measurement": "Reporter fluorescence response compared to vehicle control", "setting": "[1]; flat organoids, 72 h", "result": "elicited a response at even the lowest concentration tested"}, {"measurement": "Prediction of toxicity by increase in fluorescence intensity", "setting": "[2]; 3D 24h", "result": "Y"}, {"measurement": "Prediction of toxicity by increase in fluorescence intensity", "setting": "[2]; 3D 72h", "result": "N"}, {"measurement": "Reporter fluorescence response compared to vehicle control", "setting": "[2]; 3D organoids, 24 h", "result": "showed a response after 24 h treatment"}, {"measurement": "Reporter fluorescence response compared to vehicle control", "setting": "[2]; 3D organoids, 72 h", "result": "not after 72 h"}]}
{"molecule": "CNC(C)C1CCC(N)C(OC2C(N)CC(N)C(OC3OCC(C)(O)C(NC)C3O)C2O)O1", "note": "(stereo not drawn) [Gentamicin]", "values": [{"measurement": "Low concentration to which organoids responded (fluorescence)", "setting": "[1]; human, 24 h", "result": "2 4 μM"}, {"measurement": "HMOX1 expression by immunostaining", "setting": "[3]; human", "result": "HMOX1 expression increased"}, {"measurement": "Log2FC HMOX1", "setting": "[4]; 4 mg/mL vs control, 24 h", "result": "6.552 and 6.55"}, {"measurement": "Expression of CLU in RNA-seq", "setting": "[4]; data not shown", "result": "not up-regulated"}, {"measurement": "Expression of NGAL in RNA-seq", "setting": "[4]; data not shown", "result": "downregulated"}, {"measurement": "mCherry fluorescence intensity (fold-change relative to vehicle control)", "setting": "[5]", "result": "increased in a dose-dependent manner"}, {"measurement": "Prediction of toxicity by increase in fluorescence intensity", "setting": "[2]", "result": "Y"}, {"measurement": "Tubular structure of treated organoids", "setting": "[2]", "result": "maintained their tubular structures"}, {"measurement": "Low concentration to which organoids responded (fluorescence)", "setting": "[2]; human, 24 h", "result": 6, "unit": "µM"}]}
{"molecule": "OO", "note": "[hydrogen peroxide]", "values": [{"measurement": "HMOX1 transcripts by qPCR", "setting": "[6]", "result": "increase in HMOX1 transcripts"}, {"measurement": "mCherry fluorescence", "setting": "[6]", "result": "increased in a dose-dependent manner"}]}
{"molecule": "O=P1(NCCCl)OCCCN1CCCl", "note": "(stereo not drawn) [Ifosfamide]", "values": [{"measurement": "Prediction of toxicity by increase in fluorescence intensity", "setting": "[1]; Flat 24h", "result": "Y"}, {"measurement": "Prediction of toxicity by increase in fluorescence intensity", "setting": "[1]; Flat 72h", "result": "Y"}, {"measurement": "Reporter fluorescence response compared to vehicle control", "setting": "[1]; [8]", "result": "significant fluorescence increase"}, {"measurement": "Prediction of toxicity by increase in fluorescence intensity", "setting": "[2]; 3D 24h", "result": "Y"}, {"measurement": "Prediction of toxicity by increase in fluorescence intensity", "setting": "[2]; 3D 72h", "result": "Y"}, {"measurement": "Reporter fluorescence response compared to vehicle control", "setting": "[2]; [9]", "result": "significant fluorescence increase"}]}
{"molecule": "C[C@@H]1C[C@H]2[C@@H]3CCC4=CC(=O)C=C[C@]4(C)[C@@]3(F)[C@@H](O)C[C@]2(C)[C@@]1(O)C(=O)CO", "note": "[Dexamethasone]", "values": [{"measurement": "Prediction of toxicity by increase in fluorescence intensity", "setting": "[1]; Flat 24h", "result": "N"}, {"measurement": "Prediction of toxicity by increase in fluorescence intensity", "setting": "[1]; Flat 72h", "result": "N"}, {"measurement": "Reporter fluorescence response compared to vehicle control", "setting": "[1]; [8]", "result": "none of the concentrations produced a signal statistically different"}, {"measurement": "Prediction of toxicity by increase in fluorescence intensity", "setting": "[2]; 3D 24h", "result": "N"}, {"measurement": "Prediction of toxicity by increase in fluorescence intensity", "setting": "[2]; 3D 72h", "result": "N"}, {"measurement": "Prediction of toxicity, combination of 24 and 72 h (Boolean OR)", "setting": "[2]; 3D organoids", "result": "did not predict toxicity"}, {"measurement": "Reporter fluorescence response compared to vehicle control", "setting": "[2]; [9]", "result": "none of the concentrations produced a signal statistically different"}]}
{"molecule": "COc1ccc(C[C@H](N)C(=O)N[C@H]2[C@@H](O)[C@H](n3cnc4c(N(C)C)ncnc43)O[C@@H]2CO)cc1", "note": "[Puromycin]", "values": [{"measurement": "Reporter fluorescence response compared to vehicle control", "setting": "[1]; human", "result": "significant rise in fluorescence after both 24 and 72 h"}, {"measurement": "Reporter fluorescence response compared to vehicle control", "setting": "[2]; human", "result": "significant rise in fluorescence after both 24 and 72 h"}]}
{"molecule": "CC(C(=O)O)c1cccc(C(=O)c2ccccc2)c1", "note": "(stereo not drawn) [Ketoprofen]", "values": [{"measurement": "Prediction of toxicity by increase in fluorescence intensity", "setting": "[1]; Flat 24h", "result": "Y"}, {"measurement": "Prediction of toxicity by increase in fluorescence intensity", "setting": "[1]; Flat 72h", "result": "Y"}, {"measurement": "Reporter fluorescence response compared to vehicle control", "setting": "[1]; [8]", "result": "significant response in the flat cultures at the two highest concentrations"}, {"measurement": "Prediction of toxicity by increase in fluorescence intensity", "setting": "[2]; 3D 24h", "result": "N"}, {"measurement": "Prediction of toxicity by increase in fluorescence intensity", "setting": "[2]; 3D 72h", "result": "N"}, {"measurement": "Reporter fluorescence response compared to vehicle control", "setting": "[2]; 3D organoids, 72 h", "result": "only at the highest concentration after 72 h"}]}
{"molecule": "N.N.[Cl][Pt][Cl]", "note": "[Cisplatin]", "values": [{"measurement": "Reporter fluorescence response compared to vehicle control", "setting": "[1]", "result": "significant increase in fluorescence"}, {"measurement": "HMOX1 expression by immunostaining", "setting": "[3]", "result": "HMOX1 expression increased"}, {"measurement": "Reporter fluorescence response compared to vehicle control", "setting": "[2]", "result": "significant increase in fluorescence"}, {"measurement": "Tubular structure of treated organoids", "setting": "[2]", "result": "distinct loss of tubular structure"}, {"measurement": "Cell death (no cDNA obtained)", "setting": "[7]", "result": "massive cell death"}]}
